The subject of data set [1] is lymphoma WSU-DLCL-2 cells. The data set is described as follows: Test Example 6: YM155 followed by R-ICE, WSU-DLCL-2 xenograft. It is filed as in vivo, nude mice. On the procedure: The study was conducted in the same way as Test Example 5 according to the following dosage regimen.
YM155 group YM155 2 mg/kg/day (7-day sc continuous infusion)
RICE group RTX 50 mg/kg, i.v. (day 6 and 8)+(IFM 400 mg/kg+CBDCA 30 mg/kg), i.v (day 9)+ETP 10 mg/kg, i.v (day 8, 9 and 10)
YM155→RICE group YM155 2 mg/kg/day (7-day sc continuous infusion)+RTX 50 mg/kg, i.v. (day 6 and 8)+(IFM 400 mg/kg+CBDCA 30 mg/kg), i.v. (day 9)+ETP 10 mg/kg, i.v. (day 8, 9 and 10)
In the table, values are expressed as the mean±SEM (n=8, RICE group: n=6). ¶¶: P<0.01 versus an RICE group, ##: P<0.01 versus YM155 group, N.S.: no significance from RICE group (Student's t-test).

Data set [2] concerns human lung carcinoma cell line Calu 6. The data set is described as follows: Test Example 2B: docetaxel followed by YM155 (sequential), Calu 6 xenograft in nude mice. It is filed as in vivo. As to conditions: for Number of CRs: animals with complete regression / animals in group; for Tumor Volume day 0 / Body Weight day 35 / Tumor Volume day 35: mean ± SEM, n=8. On the procedure:
(§1) The following study was conducted in the same way as Test Example 1 except for the administration timing.
B) The first day of administration was designated day 0, and observation continued until day 35. Each group (n=8) was treated as follows.
(§2) For 7-day sc continuous infusion, an osmotic pump containing either YM155 or physiological saline, was implanted in the dorsum of each animal while under anesthesia. The vehicle control group received a 7-day sc continuous infusion of physiological saline starting on day 8, and iv bolus injection of physiological saline on days 0, 4 and 8. The YM155 group received a 7-day sc continuous infusion of YM155 at 2 mg/kg/day starting on day 8, and iv bolus injection of physiological saline on days 0, 4 and 8. The docetaxel group received iv bolus injection of docetaxel at 20 mg/10 mL/kg on days 0, 4 and 8, as well as a 7-day sc continuous infusion of physiological saline starting on day 8. The combination group received both compounds instead of the vehicle, similarly to the YM155 and docetaxel groups. Results

The subject of data set [3] is human NSCLC xenograft models. As to conditions: NSCLC xenograft model; Ref. 15; cited from earlier work.
For data set [4], the system named is human lung carcinoma cell line Calu 6. The data set is described as follows: Test Example 2A: YM155 followed by docetaxel (sequential), Calu 6 xenograft in nude mice. It is filed as in vivo. As to conditions: for Number of CRs: animals with complete regression / animals in group; for Tumor Volume day 0 / Body Weight day 35 / Tumor Volume day 35: mean ± SEM, n=8. The protocol:
as §1
A) The first day of administration was designated day 0, and observation continued until day 35. Each group (n=8) was treated as follows.
For 7-day sc continuous infusion, an osmotic pump containing either YM155 or physiological saline, was implanted in the dorsum of each animal while under anesthesia. The vehicle control group received a 7-day sc continuous infusion of physiological saline starting on day 0, and iv bolus injection of physiological saline on days 7, 11 and 15. The YM155 group received a 7-day sc continuous infusion of YM155 at 2 mg/kg/day starting on day 0 and iv bolus injection of physiological saline on days 7, 11 and 15. The docetaxel group received iv bolus injection of docetaxel at 20 mg/10 mL/kg on days 7, 11 and 15, as well as a 7-day sc continuous infusion of physiological saline starting on day 0. The combination group received both compounds instead of the vehicle, similarly to the YM155 and docetaxel groups. Results

For data set [5] the test system is unchanged. Description: Test Example 1: YM155 concomitant with docetaxel, Calu 6 xenograft in nude mice. It is filed as in vivo. As to conditions: for Number of Complete Regressions: animals with CR / animals in group, during the experimental period to day 35; for Tumor Volume day 0: day 0 (first day of administration); for Tumor Volume day 0 / Body Weight day 35 / Tumor Volume day 35: mean ± SEM, n=8. The protocol:
The dose levels are expressed in terms of YM155, the cationic moiety of the drug substance. Docetaxel hydrate (Taxotere® INJECTION) was purchased from Sanofi-Aventis Pharma Ltd. (West Lavel, FRA) and used as docetaxel.
YM155 was dissolved in and diluted with physiological saline in order to prepare dosing solutions (concentrations calculated using the following formulation: dose×mean body weight for each group/daily release volume). These solutions were prepared immediately before the implantation of an osmotic pump (Alzet® model 1007D Micro-Osmotic Pump, DURECT Co., CA, USA) into the test subjects. The solutions were then loaded into the pump. Docetaxel was diluted with physiological saline to prepare 2 mg/mL solutions immediately before administration.
The human lung carcinoma cell line Calu 6 (HTB-56, Lot No. 208280) was obtained from American Type Culture Collection (VA, USA). The cells were cultured at 37° C. in a 5% CO2 atmosphere in RPMI1640 medium supplemented with 10% heat-inactivated fetal bovine serum. The cells were collected with trypsin, suspended in PBS at 6×10^7 cells/mL, and then mixed with an equivalent volume of Matrigel® Basement Membrane Matrix (Becton Dickinson Co., Bedford, Mass., USA).
Five-week-old male nude mice (CAnN.Cg-Foxn1nu/CrlCrlj(nu/nu)) were purchased from Charles River Laboratories Japan, Inc (Kanagawa, Japan). They were maintained on a standard diet and water throughout the experiments under specific pathogen-free conditions. The cells were cultured in vitro and 3×10^6 cells/0.1 mL/mouse were grafted subcutaneously into the flank of 6-week-old nude mice. The mice with tumor volumes (length×width^2×0.5) of 97.3 to 182.7 mm^3 were divided into groups. This was done using SAS software in order to minimize intragroup and intergroup tumor volume variation.
The first day of administration was designated day 0, and observation continued until day 35. Each group (n=8) was treated as follows.
as §2, with “day 0,” for “day 8,”, “day 0.” for “day 8.”, “groups.” for “groups. Results”
Body weight and tumor diameter were measured every 3-4 days using calipers, and tumor volume was determined by calculating the volume of an ellipsoid using the formula: length×width^2×0.5. Antitumor activities are expressed as percent inhibition of tumor growth (% inh) and percent regression of the tumor (% reg). […] The percent regression of the tumor was calculated for all groups with observed tumor regression, using the following formula: 100×{1−(mean tumor volume of each group on day 35)/(mean tumor volume of each group on day 0)}. The number of Complete Regressions (CRs) in all groups were checked during the experimental period. The CR is defined by instances in which the tumor burden falls bellow the limit of palpation.
Values are expressed as the mean± the standard error of the mean (SEM). Tumor volume and body weight on day 35 were compared between each single compound group and combination group using the Student's t-test. P values of less than 5% are considered significant. SAS software was used for data processing.

Where [6] appears, read: day 35, docetaxel 20 mg/kg/day iv day 0, 4, 8, YM155 2 mg/kg/day 7-day sc infusion from day 8.
[7] abbreviates: day 35, YM155 2 mg/kg/day 7-day sc infusion from day 0, docetaxel 20 mg/kg/day iv day 7, 11, 15.
Where [8] appears, read: day 35, YM155 2 mg/kg/day 7-day sc infusion from day 0, docetaxel 20 mg/kg/day iv day 0, 4, 8.

For `COCCn1c2c([n+](Cc3cnccn3)c1C)C(=O)c1ccccc1C2=O.[Br-]` [YM155, 1-(2-methoxyethyl)-2-methyl-4,9-dioxo-3-(pyrazin-2-ylmethyl)-4,9-dihydro-1H-naphtho[2,3-d]imidazol-3-ium bromide], the “Number of CRs” value in data set [1] (animals with complete regression / animals in group), in data set [2] and in data set [4] was 0/8 throughout. The “Tumor Volume day 0” value in data set [1] (day 0, mean ± SEM, n=8, RICE group n=6) is on record as 405.1 ± 13.8 mm^3; in data set [2], 206.9 ± 21.8 mm^3; in data set [4], 208.5 ± 18.6 mm^3; in data set [5] it was 121.4 ± 6.9 mm^3. Further, the “Antitumor Activity, percent inhibition of tumor growth (% inh)” value in data set [1] (day 28, YM155 2 mg/kg/day 7-day sc infusion, RICE given day 6-10) amounted to 45%; in data set [5] (setting [8]) it was 99%. For the same molecule, the “Body Weight day 28” value in data set [1] (day 28, YM155 2 mg/kg/day 7-day sc infusion, RICE given day 6-10, mean ± SEM) stood at 28.81 ± 0.23 g. For the same molecule, the “Tumor Volume day 28” value in data set [1] (day 28, YM155 2 mg/kg/day 7-day sc infusion, RICE: RTX 50 mg/kg iv day 6, 8 + IFM 400 mg/kg + CBDCA 30 mg/kg iv day 9 + ETP 10 mg/kg iv day 8-10, mean ± SEM) is given as 1181.3 ± 174.7 mm^3. Besides, the “Body Weight day 35” value is reported as 24.80 ± 1.01 ^ g in data set [2] (setting [6]), 26.25 ± 0.25 g in data set [4] (setting [7]) and 26.13 ± 0.56 ^ g in data set [5] (setting [8]). The “Tumor Volume day 35” value amounted to 1437.5 ± 225.5 mm^3 in data set [2] (setting [6]), 251.8 ± 50.7 mm^3 in data set [4] (setting [7]) and 142.3 ± 16.9 mm^3 in data set [5] (setting [8]). In data set [3], the “anti-tumor activity of 7-day continuous infusion” value is given as “induced tumor regression”. Besides, in data set [5], the “Number of Complete Regressions” value is listed as 0/8.

`CC(=O)O[C@@]12CO[C@@H]1C[C@H](O)[C@@]1(C)C(=O)[C@H](O)C3=C(C)[C@@H](OC(=O)[C@H](O)[C@@H](NC(=O)OC(C)(C)C)c4ccccc4)C[C@@](O)([C@@H](OC(=O)c4ccccc4)[C@H]21)C3(C)C` [Docetaxel, Docetaxel hydrate]: in data set [2], the “Number of CRs” value was 0/8 and the “Tumor Volume day 0” value is reported as 210.0 ± 22.6 mm^3. Besides, in data set [2] (setting [6]), the “Antitumor Activity, percent inhibition of tumor growth (% inh)” value is over 100%; the “Antitumor Activity, percent regression of the tumor (% reg)” value worked out at 68%; the “Body Weight day 35” value is recorded as 23.84 ± 1.01 ^ g; the “Tumor Volume day 35” value was 67.2 ± 15.1 mm^3. Moreover, in data set [4], the “Number of CRs” value is 0/8 and the “Tumor Volume day 0” value was 209.1 ± 18.3 mm^3. In data set [4] (setting [7]), the “Antitumor Activity, percent inhibition of tumor growth (% inh)” value is over 100%; the “Antitumor Activity, percent regression of the tumor (% reg)” value was found to be 10%; the “Body Weight day 35” value is reported as 21.03 ± 0.94 g; the “Tumor Volume day 35” value was 188.8 ± 29.1 mm^3. In data set [5], the “Number of Complete Regressions” value is 0/8 and the “Tumor Volume day 0” value was 121.4 ± 7.0 mm^3. In addition, in data set [5] (setting [8]), the “Antitumor Activity, percent inhibition of tumor growth (% inh)” value is given as over 100%; the “Antitumor Activity, percent regression of the tumor (% reg)” value amounted to 52%; the “Body Weight day 35” value is given as 24.95 ± 0.54 ^ g; the “Tumor Volume day 35” value worked out at 58.0 ± 20.4 mm^3.

The values are drawn from patent publication US8003105B2, “Method of treating cancer by co-administration of anticancer agents” (Astellas Pharma Inc., priority 2006, dated 2011).
